The text below walks through data of US20230338347A1, “New Use of Inhibitors of the Notch Signalling Pathway” (Cellestia Biotech AG, priority 2020, published 2023).

Series [1] is described as follows: Phase I/IIA dose escalation: visual symptoms (eye-related AE) per dose group. The format is in vivo, human. How it is done:
The dosing will be 15, 30, 60, 120, 170, 250, 400, or 600 mg of the 6-(4-Tert-Butylphenoxy)Pyridin-3-Amine monohydrochloride salt or higher per day or alternatively 20, 40, 60, 120, 170, 250, 400, or 600 mg of the 6-(4-Tert-Butylphenoxy)Pyridin-3-Amine monohydrochloride salt or higher per day. Dosing of 15, 30, 60, 120, 170, 250, 400, or 600 mg of the 6-(4-Tert-Butylphenoxy)Pyridin-3-Amine monohydrochloride salt corresponds to dosing of 13, 26, 52, 104, 148, 217, 348, or 522 mg of 6-(4-Tert-Butylphenoxy)Pyridin-3-Amine (free base). Dosing of 20, 40, 60, 120, 170, 250, 400, or 600 mg of the 6-(4-Tert-Butylphenoxy)Pyridin-3-Amine monohydrochloride salt corresponds to dosing of 17, 35, 52, 104, 148, 217, 348, or 522 mg of 6-(4-Tert-Butylphenoxy)Pyridin-3-Amine (free base). For this study, 6-(4-Tert-Butylphenoxy)Pyridin-3-Amine monohydrochloride salt was formulated into a capsule having a drug load of 5, 10, 20, 50 and 100 mg, respectively intended to be administered orally. • Patients will meet the following criteria:
In the dose escalation cohort, patients in dose group (DG) 4 receiving 120mg of 6-(4-Tert-Butylphenoxy)Pyridin-3-Amine monohydrochloride salt and patients in higher dose groups reported visual symptoms with increasing incidence. It is believed that the occurrence of visual symptoms is a pharmacodynamic effect of 6-(4-Tert-Butylphenoxy)Pyridin-3-Amine. This makes a dose of 120 mg and higher of the 6-(4-Tert-Butylphenoxy)Pyridin-3-Amine monohydrochloride salt the therapeutic dose of choice.

The subject of series [2] is NOTCH target genes. Nature of the series: NOTCH target gene expression in hair follicles of Phase 1 patients (Nanostring). It is filed as in vivo, human. The settings on record: Homo sapiens, hair follicle, read-out: Inhibition range, NOTCH target down regulation. The text has this: Hair follicles were obtained at pre-defined time points to measure changes in NOTCH target genes expression by 6-(4-Tert-Butylphenoxy)Pyridin-3-Amine treatment. NOTCH target gene down-regulation in hair follicles has been reported to be a robust and indicative biomarker that correlates with both clinical efficacy and the incidence of DLTs (Tanis K Q, et al. Clin Pharmacol Ther 2016; 99(4):370-80; Cook N, et al. BJC 2018; 118(6):793-801).
Between 5 to 10 hairs were plucked to extract the complete and undamaged hairbulb (full hair follicle), and processed as described in Camidge D R, et al. Br J Cancer 2005; 92:1837-41 and Bradley B J, et al. Mol EcolNotes 2005; 5:961-4. RNA concentration was measured by Qubit (RNAHighSensitivity), and RNA integrity was evaluated on a RNA 6000 Pico chip. RNA samples were tested for gene expression profiling on a Nanostring platform.
(§1) Table 1: NOTCH target down regulation in hair follicles and blood cells from Phase 1 patients. Target gene down regulation (CCND3, cyclin-D3; HES1, Hairy and enhance of split-1; HES4, Hairy and enhance of split-4; HESS, Hairy and enhance of split-5; HEY1, hes related family bHLH transcription factor with YRPW motif1; HEY2; hes related family bHLH transcription factor with YRPW motif 2; HEYL, hes-related family bHLH transcription factor with YRPW motif-like; IL7R-α, Interleukin-7 receptor subunit alpha; NOTCH1; NOTCH2; NRARP (NOTCH Regulated Ankyrin Repeat Protein): […]

Series [3] relates to NOTCH target genes. The series is described as follows: NOTCH target gene expression in whole blood of Phase 1 patients (Nanostring). It is filed as in vivo. The settings on record: Homo sapiens, 600 mg dose group, CCND3, HEY1, IL7Rα, NOTCH1, NOTCH2, read-out: Inhibition range, NOTCH target down regulation. The procedure: In addition to hair follicles, gene expression profiling to measure changes in NOTCH target genes was also performed in whole blood as an alternative surrogate tissue.
Whole blood samples for gene expression analysis were collected in PAXgene Blood RNA Tubes and RNA extracted following their standard Blood RNA Kit for silica-membrane-based RNA isolation and purification (Beckton Dickinson). RNA samples were tested for gene expression profiling on a Nanostring platform.
as §1

Each structure is given as a SMILES string. Structures can show the parent of a compound that is named as a salt. Where only a bound is given, the exact number is not on record here.

`CC(C)(C)c1ccc(Oc2ccc(N)cn2)cc1` [6-(4-Tert-Butylphenoxy)Pyridin-3-Amine monohydrochloride]: the “Eye-related AE, % on total pts per DG” value in series [1] (DG4 (120 mg)) was 43%. In addition, the “dose at and above which visual symptoms were reported (increasing incidence)” value in series [1] (DG4 and higher dose groups, once daily oral) was at least 120 mg. Further, the “Eye-related AE, % on total pts per DG” value in series [1] (DG5 (170 mg)) amounted to 67%. Besides, in series [1] (DG6 (250 mg)), the “Eye-related AE, % on total pts per DG” value worked out at 75%. For the same molecule, in series [1] (DG7 (400 mg)), the “Eye-related AE, % on total pts per DG” value came out at 67%. In addition, in series [1] (DG8 (600 mg)), the “Eye-related AE, % on total pts per DG” value came out at 67%. In addition, in series [1] (all dose groups), the “Adaptative visual difficulty, #AEs” value is on record as 1; the “Blurred vision, #AEs” value is 6; the “Eye disorder, #AEs” value is given as 2; the “Eye-related AE Total, #AEs” value came out at 26. Further, in series [1] (all dose groups), the “Intermittent color vision deficiency/ Intermittent blurred vision, #AEs” value is reported as 2; the “Photophobia, #AEs” value is reported as 2; the “Photopsy, #AEs” value was determined as 3; the “Transient defect in accommodation to dim light, #AEs” value turned out to be 7. Besides, in series [1] (all dose groups), the “Visual alteration, #AEs” value is 2 and the “Visual disturbance in light exposure, #AEs” value was 1. In addition, the inhibition (usually the percentage by which the read-out fell short of the control) at 60 mg in series [2] (60 mg dose group, HES4, HES5, NRARP) is at most 80%. Also, in series [2] (120 mg dose group, CCND3, HES4, HES5, HEYL, HEY2), the inhibition at 120 mg is at most 95%. Besides, the inhibition at 170 mg in series [2] (170 mg dose group, HES1) is at most 75%. In series [2] (250 mg dose group, CCND3, HES1, HEY2, NRARP), the inhibition at 250 mg was at most 80%. In series [3], the inhibition at 600 mg is at most 50%.
